Experimental data published in patent US20110288036A1, “Methods for Treating or Preventing Vascular Graft Failure” (priority 2010, published 2011).

Columns and labels:
[1] = test system: JNK; experiment: JNK radiometric kinase assay; type: biochemical; conditions: peptide 100 μM
Source text: A commercial radiometric assay service was used to test the specificity and potency of MMI-0100 ([…]; SEQ ID NO: 1) by measuring its half maximal inhibitory concentrations (IC50). This quantitative assay measures how much MK2 inhibitor (MMI-0100; […] (SEQ ID NO: 1)) is needed to inhibit 50% of a given biological process or component of a process (i.e., an enzyme, cell, or cell receptor). Specifically, in these assays, a positively charged substrate is phosphorylated with a radiolabeled phosphate group from an ATP if the kinase is not inhibited by an inhibitor peptide. The positively charged substrate then is attracted to a negatively charged filter membrane, quantified with a scintillation counter, and compared to a 100% activity control. ATP concentrations within 15 μM of the apparent Km for ATP were chosen since an ATP concentration near the Km may allow for the kinases to have the same relative amount of phosphorylation activity. […]
For the JNK (c-Jun N-terminal Kinase) radiometric assay, 5-10 mU of JNK was incubated with 50 mM Tris pH 7.5, 0.1 mM EGTA, 0.1% b-mercaptoethanol, 3 μM ATF2 (a substrate for JNK), 10 mM MgAcetate, and 10 μM of [y-^33P-ATP] in the final reaction volume of 25 μl. […] The washed P30 filtermat was dried and its radioactivity was measured by scintillation counter.
IC50 values for inhibitor peptides were determined using Millipore's IC50 Profiler Express service. […]

[2] = test system: vein graft (inferior vena cava) intimal hyperplasia; experiment: Mouse vein graft model; type: in vivo
Method: 12-week-old C57BL/6 wild type mice (Harlan) were used for all experiments, as previously described (Muto, A. et al., J. Exp. Med., 2011, 208(3): 561-575, incorporated herein by reference in its entirety). […] Prior to implantation, the vein was treated ex vivo with 100 μM of MMI-0100 ([…] (SEQ ID NO: 1)) peptide solution, or control PBS solution, for 20 minutes at room temperature.
To implant the vein graft, a midline incision was made in the abdomen of a recipient mouse and the infrarenal abdominal aorta was exposed. The abdominal aorta was temporarily occluded with atraumatic micro-clamps and a segment corresponding to the length of the vein graft was excised. The vein was sutured into the arterial circulation using 10-0 nylon in continuous fashion.
Vein grafts were followed postoperatively using the Vevo770® High-Resolution Imaging System (VisualSonics, Toronto, Canada), with weekly measurements of graft wall thickness. At 28 days after surgery, mice were sacrificed to allow explantation of the vein graft. Tissue was either frozen with RNA stabilization reagent (Qiagen) or explanted for paraffin embedding after circulatory flushing with ice-cold PBS followed by 4% paraformaldehyde perfusion-fixation. Vein graft wall thickness, lumen diameter, and outer wall diameter (elastic lamina) were measured in elastin-stained sections using computer morphometry (ImageJ).
Vein graft samples were fixed as described above and harvested for histology. Specimens were embedded in paraffin and cut in cross section (5 μm). Hematoxylin & Eosin, Masson trichrome, and van Gieson elastin staining were performed for all samples. Cells were cultured on gelatin-coated cover slips and fixed with methanol.
All sections were treated for antigen retrieval using 10 mmol/L citrate buffer (pH 6.0) prior to boiling or proteinase K (20 μg/ml) treatment, at room temperature, for 10-15 minutes. Immunohistochemical detection was performed using DAB as well as NovaRED® substrate (Vector). Sections were counterstained with Mayer's Hematoxylin.
The efficacy of MMI-0100 ([…]; SEQ ID NO: 1) in treating intimal hyperplasia in vivo was examined using a mouse model of vein bypass graft. […] The IVC was soaked in a 100 μM solution of MMI-0100 ([…]; SEQ ID NO: 1) at room temperature for 20 minutes prior to implantation into a host (C57BL/6J) mouse to bypass the infrarenal aorta. Five treated and six untreated veins were transplanted for a total of 11 transplanted animals. Vein graft wall thickness was determined using a […] ultrasound imaging system at each week.
In order to further confirm the inhibitory effects of MMI-0100 ([…]; SEQ ID NO: 1) on intimal hyperplasia development in an […] model, the effect of MMI-0100 ([…]; SEQ ID NO: 1) was investigated in a follow-up study using a mouse model of vein graft adaptation. To this end, vein grafts were treated with PBS or 100 μM of MMI-0100 ([…]; SEQ ID NO: 1) for 20 minutes prior to implantation; the thickness of the vein grafts then was examined weekly with ultrasound.

**Q.** YARAAARQARAKALARQLGVAA [MMI-0100] was tested. Which “Percent Activity, JNK” value [1] did it give?
**A.** 92%

**Q.** And the “reduced wall thickness compared to control grafts (histological staining)” value ([2]; follow-up study, 100 μM 20 minutes ex vivo, 4 weeks)?
**A.** 72%

**Q.** And the “F4/80-positive cells infiltrating into vein grafts” value ([2]; follow-up study, 100 μM 20 minutes ex vivo, 4 weeks, immunohistochemistry)?
**A.** fewer F4/80-positive cells

**Q.** What about the “vein graft wall thickness ratio” value ([2]; follow-up study, 100 μM 20 minutes ex vivo, 4 weeks, ultrasound, control 4.7-fold) of the same sequence?
**A.** 2.6 fold

**Q.** What about the “vein graft wall thickness, weekly ultrasound” value ([2]; follow-up study, 100 μM 20 minutes ex vivo, weeks 1-4) of the same sequence?
**A.** diminished wall thickness at all postoperative time points

**Q.** And the “vessel wall thickness relative to originally harvested IVC” value ([2]; graft soaked 100 μM 20 minutes, 4 weeks, ultrasound, control almost five times)?
**A.** about 2.5 times
